Measured values taken from ChEMBL document CHEMBL4190175 (Medchemcomm, 2016).
≈ marks a conversion by molar mass, not a printed value.

Tests used:
[1] = Stability in human liver microsomes assessed as metabolic turnover number at 10 uM after 15 mins by LC-MS/UV analysis; format: ADME, microsome; conditions: read-out: Stability
[2] = Passive permeability of the compound in RRCK cells; format: ADME, cell-based, Canis lupus familiaris, MDCKII-LE; conditions: dog, MDCK; read-out: permeability
[3] = target: Transient receptor potential cation channel subfamily A member 1 (Mus musculus, UniProt Q8BLA8); assay: Antagonist activity at mouse TRPA1 by electrophysiology assay
[4] = Stability in rat liver microsomes; format: ADME, microsome; conditions: read-out: Stability
Hepatocyte = assay: Stability in rat hepatocytes; format: ADME, cell-based
[5] = Stability in rat plasma; format: ADME, cell-free; conditions: read-out: Stability
[6] = Kinetic solubility of the compound at pH 6.5; format: physicochemical; conditions: buffer, read-out: Kinetic_solubility
[7] = Fraction unbound in human plasma; format: ADME, cell-free
[8] = Fraction unbound in rat plasma; format: ADME, cell-free
[9] = target: Voltage-gated inwardly rectifying potassium channel KCNH2 (Homo sapiens, UniProt Q12809); assay: Inhibition of human ERG
[10] = target: T1, Potassium voltage-gated channel subfamily KQT member 1 (Homo sapiens, UniProt P51787); assay: Inhibition of KvLQT1 (unknown origin)
T1 sequence (P51787 whole entry): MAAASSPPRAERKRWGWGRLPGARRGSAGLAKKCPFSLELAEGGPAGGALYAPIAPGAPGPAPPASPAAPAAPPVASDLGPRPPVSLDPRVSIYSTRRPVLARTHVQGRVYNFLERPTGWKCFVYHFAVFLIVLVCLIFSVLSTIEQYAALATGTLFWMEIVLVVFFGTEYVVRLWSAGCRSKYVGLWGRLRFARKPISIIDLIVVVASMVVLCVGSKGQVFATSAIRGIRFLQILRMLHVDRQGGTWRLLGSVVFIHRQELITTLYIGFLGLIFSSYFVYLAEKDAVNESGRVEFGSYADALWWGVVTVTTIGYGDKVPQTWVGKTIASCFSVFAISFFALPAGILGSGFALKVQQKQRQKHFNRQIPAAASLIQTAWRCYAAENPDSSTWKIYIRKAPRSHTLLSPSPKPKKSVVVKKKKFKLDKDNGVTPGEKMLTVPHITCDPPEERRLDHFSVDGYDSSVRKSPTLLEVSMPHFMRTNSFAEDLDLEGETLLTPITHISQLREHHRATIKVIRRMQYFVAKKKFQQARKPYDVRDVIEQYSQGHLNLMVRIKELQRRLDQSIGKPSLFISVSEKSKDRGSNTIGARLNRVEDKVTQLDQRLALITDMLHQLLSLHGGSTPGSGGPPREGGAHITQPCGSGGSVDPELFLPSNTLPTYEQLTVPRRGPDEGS

Cytochrome P450 2C9 = Cytochrome P450 2C9 (Homo sapiens, UniProt P11712); assay: Inhibition of CYP2C9 (unknown origin); format: ADME
Cytochrome P450 3A4 = Cytochrome P450 3A4 (Homo sapiens, UniProt P08684); assay: Inhibition of CYP3A4 (unknown origin); format: ADME
[11] = Volume of distribution at steady state in rat; format: ADME, organism-based; conditions: in vivo, read-out: Vdss
[12] = Half life in rat; format: ADME, organism-based; conditions: in vivo
[13] = Oral bioavailability in rat; format: ADME, organism-based; conditions: in vivo
[14] = Drug uptake in Sprague-Dawley rat skin epidermal layer at 0.68 mg applied topically measured after 24 hrs; format: ADME, tissue-based, Skin epidermis; conditions: topical or ocular, read-out: Drug uptake

Sequence of Cytochrome P450 3A4 (P08684 whole entry): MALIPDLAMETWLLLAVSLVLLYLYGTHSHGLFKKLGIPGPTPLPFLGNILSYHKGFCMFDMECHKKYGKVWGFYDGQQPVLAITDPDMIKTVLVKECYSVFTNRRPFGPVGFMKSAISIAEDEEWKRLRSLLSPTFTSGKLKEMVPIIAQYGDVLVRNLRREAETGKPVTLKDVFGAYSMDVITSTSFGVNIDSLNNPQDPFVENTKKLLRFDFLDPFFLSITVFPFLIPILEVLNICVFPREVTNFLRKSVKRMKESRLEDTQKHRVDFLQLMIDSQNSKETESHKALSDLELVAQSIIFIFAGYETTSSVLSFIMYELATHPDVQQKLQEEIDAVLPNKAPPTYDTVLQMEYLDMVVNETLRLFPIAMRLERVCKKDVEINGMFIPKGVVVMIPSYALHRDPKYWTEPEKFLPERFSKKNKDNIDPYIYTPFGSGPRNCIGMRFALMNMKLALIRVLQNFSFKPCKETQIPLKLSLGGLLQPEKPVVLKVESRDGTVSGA
Sequence of Transient receptor potential cation channel subfamily A member 1 (Q8BLA8 whole entry): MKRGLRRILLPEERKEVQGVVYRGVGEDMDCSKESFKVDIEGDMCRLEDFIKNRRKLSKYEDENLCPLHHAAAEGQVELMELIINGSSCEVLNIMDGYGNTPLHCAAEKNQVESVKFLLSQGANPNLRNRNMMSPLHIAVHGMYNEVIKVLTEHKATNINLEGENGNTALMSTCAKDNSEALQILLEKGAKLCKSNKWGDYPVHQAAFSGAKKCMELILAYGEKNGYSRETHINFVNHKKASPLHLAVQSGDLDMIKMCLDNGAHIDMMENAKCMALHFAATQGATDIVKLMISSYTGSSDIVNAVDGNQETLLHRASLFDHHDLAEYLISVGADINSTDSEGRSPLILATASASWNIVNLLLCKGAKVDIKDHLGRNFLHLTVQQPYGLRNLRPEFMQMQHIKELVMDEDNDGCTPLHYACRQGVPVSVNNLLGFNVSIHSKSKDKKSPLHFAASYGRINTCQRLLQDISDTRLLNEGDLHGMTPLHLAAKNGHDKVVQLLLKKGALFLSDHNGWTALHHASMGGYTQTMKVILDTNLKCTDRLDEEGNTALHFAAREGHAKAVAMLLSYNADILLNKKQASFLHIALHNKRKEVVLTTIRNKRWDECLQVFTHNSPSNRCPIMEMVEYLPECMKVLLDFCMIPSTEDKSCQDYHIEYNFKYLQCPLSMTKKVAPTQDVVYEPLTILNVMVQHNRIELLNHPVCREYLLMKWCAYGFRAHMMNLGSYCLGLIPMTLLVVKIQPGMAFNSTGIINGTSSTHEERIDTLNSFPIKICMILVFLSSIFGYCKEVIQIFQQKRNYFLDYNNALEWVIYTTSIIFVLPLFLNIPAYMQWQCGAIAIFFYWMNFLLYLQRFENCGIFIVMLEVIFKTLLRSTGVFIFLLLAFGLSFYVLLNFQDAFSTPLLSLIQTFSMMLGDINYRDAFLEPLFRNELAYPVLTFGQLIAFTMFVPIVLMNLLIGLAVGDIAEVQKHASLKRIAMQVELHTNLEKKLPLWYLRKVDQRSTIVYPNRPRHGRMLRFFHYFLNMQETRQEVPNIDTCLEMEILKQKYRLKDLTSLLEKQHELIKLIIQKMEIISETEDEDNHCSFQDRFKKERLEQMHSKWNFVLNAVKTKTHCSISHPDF
Sequence of Voltage-gated inwardly rectifying potassium channel KCNH2 (Q12809 whole entry): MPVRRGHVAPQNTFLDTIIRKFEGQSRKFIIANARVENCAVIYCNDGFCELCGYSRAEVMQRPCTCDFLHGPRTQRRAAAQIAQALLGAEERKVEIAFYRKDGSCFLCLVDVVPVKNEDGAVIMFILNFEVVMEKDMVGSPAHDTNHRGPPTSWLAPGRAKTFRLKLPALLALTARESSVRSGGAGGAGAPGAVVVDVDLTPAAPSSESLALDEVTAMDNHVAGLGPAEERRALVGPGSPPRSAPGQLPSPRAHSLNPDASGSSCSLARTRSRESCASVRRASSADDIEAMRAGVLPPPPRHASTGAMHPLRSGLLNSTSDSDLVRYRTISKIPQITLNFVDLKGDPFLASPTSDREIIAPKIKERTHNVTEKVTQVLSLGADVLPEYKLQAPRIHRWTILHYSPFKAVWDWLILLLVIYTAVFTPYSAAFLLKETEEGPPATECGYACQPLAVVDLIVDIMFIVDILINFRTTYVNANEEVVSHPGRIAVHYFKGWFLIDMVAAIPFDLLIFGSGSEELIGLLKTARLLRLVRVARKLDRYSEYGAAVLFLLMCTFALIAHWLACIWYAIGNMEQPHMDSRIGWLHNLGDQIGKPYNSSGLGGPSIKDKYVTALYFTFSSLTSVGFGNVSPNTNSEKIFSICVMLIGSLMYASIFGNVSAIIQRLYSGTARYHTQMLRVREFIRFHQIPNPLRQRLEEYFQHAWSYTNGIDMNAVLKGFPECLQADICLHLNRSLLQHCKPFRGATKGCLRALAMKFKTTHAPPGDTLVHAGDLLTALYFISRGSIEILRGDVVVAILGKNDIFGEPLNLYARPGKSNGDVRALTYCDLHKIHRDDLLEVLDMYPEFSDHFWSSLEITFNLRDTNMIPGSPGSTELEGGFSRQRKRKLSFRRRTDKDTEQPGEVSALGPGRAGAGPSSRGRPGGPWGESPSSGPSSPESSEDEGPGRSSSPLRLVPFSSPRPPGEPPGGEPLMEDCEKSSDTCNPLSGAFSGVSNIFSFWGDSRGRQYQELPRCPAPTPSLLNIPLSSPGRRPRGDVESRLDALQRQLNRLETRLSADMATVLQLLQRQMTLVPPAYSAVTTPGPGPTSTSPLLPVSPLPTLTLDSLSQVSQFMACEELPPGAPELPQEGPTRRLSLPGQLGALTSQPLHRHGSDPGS
Sequence of Cytochrome P450 2C9 (P11712 whole entry): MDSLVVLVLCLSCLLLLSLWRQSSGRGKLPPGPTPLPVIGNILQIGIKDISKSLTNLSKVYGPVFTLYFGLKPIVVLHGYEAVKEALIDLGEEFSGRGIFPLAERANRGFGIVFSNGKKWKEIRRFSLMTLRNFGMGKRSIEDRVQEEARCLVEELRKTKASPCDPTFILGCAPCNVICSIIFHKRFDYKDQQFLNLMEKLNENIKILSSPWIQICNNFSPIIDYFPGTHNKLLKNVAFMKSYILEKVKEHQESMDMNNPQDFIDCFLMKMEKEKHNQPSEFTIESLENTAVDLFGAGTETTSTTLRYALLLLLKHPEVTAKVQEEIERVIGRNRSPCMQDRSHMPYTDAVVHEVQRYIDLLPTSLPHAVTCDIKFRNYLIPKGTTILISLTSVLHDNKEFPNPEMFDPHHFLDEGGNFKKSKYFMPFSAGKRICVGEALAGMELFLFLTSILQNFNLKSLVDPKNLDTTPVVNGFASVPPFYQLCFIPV

microsomal CLint at 10 µM [1]: 246 µL/min/mg
Papp [2]: 1 ×10⁻⁶ cm/s
IC50 [3]: 4 nM
microsomal CLint [4]: 524 µL/min/mg
Stability (Hepatocyte): 30 µL/min/mg
half-life [5]: > 6 h
solubility kinetic [6]: 12 µM (≈ 6.11 µg/mL)
fraction unbound [7]: 0.0011
fraction unbound [8]: 0.00057
INH [10]: > 3000 nM
IC50 (Cytochrome P450 2C9): 11400 nM
IC50 (Cytochrome P450 3A4): 2160 nM
Vd [11]: 3.99 L/kg
half-life [12]: 4.4 h
bioavailability [13]: 5%
concentration at 24 h [14]: 3.13e+06 ng/g
SMILES: O=C(NC[C@@H](Cc1ccccc1)N1CCC(O)(C(F)(F)F)CC1)C1(c2ccc(Cl)cc2)CCCC1
IC50 [9]: > 3000 nM
